According to ChEMBL document CHEMBL1136916, “Discovery of new S-adenosylmethionine decarboxylase inhibitors for the treatment of Human African Trypanosomiasis (HAT)” (Bioorg Med Chem Lett, 2009):
pIC50: −log10 of the molar value. The source made the active and inactive calls. No cut-off for these calls is given here.

Legend:
[1] = test system: Trypanosoma brucei brucei; assay: Antitrypanosomal activity against Trypanosoma brucei brucei; assay type: functional, organism-based
Trypanosoma brucei = assay: Inhibition of Trypanosoma brucei AdoMetDC assessed as ratio of Kinact to Ki(apparent)
[2] = test system: Trypanosoma brucei rhodesiense; assay: Antitrypanosomal activity against Trypanosoma brucei rhodesiense; assay type: functional, organism-based
[3] = test system: Trypanosoma brucei brucei; assay: Antitrypanosomal activity against Trypanosoma brucei brucei infected mouse assessed as reduction in parasitemia; assay type: functional, organism-based
[4] = Distribution coefficient, log D at pH 7.4 by shake flask method; assay type: physicochemical; details: octanol/water
[5] = AUC in brain of single dose ip administered mouse; assay type: ADME, organism-based
[6] = Cmax in brain of single dose ip administered mouse; assay type: ADME, organism-based; parameters: route intraperitoneal
[7] = Cmax in blood of single dose ip administered mouse; assay type: ADME, organism-based; parameters: route intraperitoneal
[8] = AUC in blood of single dose ip administered mouse; assay type: ADME, organism-based
[9] = Half life in single dose ip administered mouse; assay type: ADME, organism-based; details: in vivo

| pIC50 [1] | Ratio (Trypanosoma brucei) | pIC50 [2] | Compound | also measured |
| --- | --- | --- | --- | --- |
| < 4.85 | 0.19 | 5.85 | CN(C/C=C\CN)C[C@H]1O[C@@H](n2cnc3c(N)ncnc32)[C@H](F)[C@@H]1O | – |
| 6.05 | – | – | CCc1nc2c(N)ncnc2n1[C@@H]1O[C@H](CN(C)C/C=C\CN)[C@@H](O)[C@H]1O | – |
| < 4.85 | 0.19 | 5.59 | CN(C/C=C\CN)C[C@H]1O[C@@H](n2cnc3c(N)ncnc32)[C@@H](F)[C@@H]1O | – |
| 5.14 | 0.02 | 5.77 | CN(C/C=C\CN)C[C@H]1O[C@@H](n2cnc3c(N)nc(Cl)nc32)[C@H](O)[C@@H]1O | – |
| 6.68 | 1.5 | 7.96 | CN(C/C=C\CN)C[C@H]1O[C@@H](n2cnc3c(N)ncnc32)[C@H](O)[C@@H]1O | Activity [3]: Active; logD [4]: -1.8 |
| 4.96 | – | – | CCCc1nc2c(N)ncnc2n1[C@@H]1O[C@H](CN(C)C/C=C\CN)[C@@H](O)[C@H]1O | – |
| 7.57 | 7.78 | 9.00 | Cc1nc2c(N)ncnc2n1[C@@H]1O[C@H](CN(C)C/C=C\CN)[C@@H](O)[C@H]1O | AUC [5]: 1300 ng·h/mL; Cmax [6]: 660 ng/mL; Activity [3]: Active; Cmax [7]: 36900 ng/mL; AUC [8]: 17900 ng·h/mL; half-life [9]: 7.43 h |
| < 4.85 | – | – | Cc1nc(N)c2ncn([C@@H]3O[C@H](CN(C)C/C=C\CN)[C@@H](O)[C@H]3O)c2n1 | – |
